Drawing on PubChem BioAssay (NCI), this text covers TGI for 16 compounds.

The structures appear in SMILES notation.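 Assay format: 96-well plates, 48-hour exposure. TGI is the concentration that stops growth completely.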

Some test systems named below: UACC-62 melanoma; HL-60(TB) leukemia; NCI-H522 lung; SF-539 CNS; ACHN renal; OVCAR-3 ovarian; RXF 393 renal; SK-MEL-5 melanoma.
What all share (test): NCI-60 cell line screen, 48 h

Regarding `CC1CN=C(c2ccc(CN3CCC(C4CCN(Cc5ccc(C6=NCC(C)N6)cc5)CC4)CC3)cc2)N1` (stereo unspecified), the TGI with UACC-62 melanoma was 41.7 µM; in the experiment with HL-60(TB) leukemia, greater than 100 µM; in the experiment with NCI-H522 lung, 33.7 µM; in the experiment on SF-539 CNS it was 37.7 µM; in the experiment with ACHN renal, 75.9 µM; in the experiment on OVCAR-3 ovarian, 44.5 µM. Further, the TGI in the experiment on RXF 393 renal was 33.5 µM; in the experiment with SK-MEL-5 melanoma it was greater than 100 µM.
Turning to `O=C1/C(=C/c2ccc(O)cc2)CCC1CNc1ccccc1` (stereo unspecified), the TGI with UACC-62 melanoma stood at 28.7 µM; in the experiment with HL-60(TB) leukemia it was 4.91 µM; with NCI-H522 lung, 6.95 µM; in the experiment with SF-539 CNS, 29.8 µM; in the experiment with ACHN renal it was 24.8 µM; in the experiment with OVCAR-3 ovarian, 28.4 µM. The TGI in the experiment on RXF 393 renal stood at 35.9 µM; with SK-MEL-5 melanoma, 30.6 µM.
Regarding `C[C@]12CC[C@H]3[C@@H](CCC4=C(Br)C(=O)C=C[C@@]43O)[C@@H]1CCC2=O`, the TGI in the experiment on UACC-62 melanoma was greater than 100 µM; in the experiment on HL-60(TB) leukemia it was 81.6 µM; in the experiment on NCI-H522 lung, 38.1 µM; with SF-539 CNS it was greater than 100 µM; in the experiment on ACHN renal, greater than 100 µM; in the experiment on OVCAR-3 ovarian, greater than 100 µM. Further, the results for the TGI in the experiment with RXF 393 renal and in the experiment with SK-MEL-5 melanoma were 57.1 µM and greater than 100 µM, respectively.
Take `Clc1nc2c(C#Cc3ccccc3)ncnc2n1C1CCCCO1` (stereo unspecified): the TGI with UACC-62 melanoma was 27 µM; in the experiment on HL-60(TB) leukemia, 33.7 µM; with NCI-H522 lung, 25.1 µM; in the experiment on SF-539 CNS, 42.2 µM; with ACHN renal, 30.9 µM; in the experiment with OVCAR-3 ovarian, 30.4 µM. In addition, the TGI is 26.9 µM in the experiment on RXF 393 renal and 24.8 µM with SK-MEL-5 melanoma.
Take `CC(=O)NC(=O)NC1=NCCC(=O)N1CCc1c[nH]c2ccccc12`: the TGI in the experiment with UACC-62 melanoma, with HL-60(TB) leukemia, in the experiment with NCI-H522 lung, in the experiment with SF-539 CNS, with ACHN renal and in the experiment with OVCAR-3 ovarian was greater than 100 µM in each case. The TGI in the experiment with RXF 393 renal and in the experiment on SK-MEL-5 melanoma was greater than 100 µM in each case.
With `O=[N+]([O-])c1ccc2c(c1)n1c(N3CCCC3)[n+]3ccccc3c1c1c3cccc[n+]3c(N3CCCC3)n21`, the TGI is greater than 100 µM in the experiment with UACC-62 melanoma; 94.1 µM in the experiment on HL-60(TB) leukemia; greater than 100 µM with NCI-H522 lung; greater than 100 µM with SF-539 CNS; greater than 100 µM in the experiment on OVCAR-3 ovarian; greater than 100 µM in the experiment with RXF 393 renal. This compound had a TGI in the experiment on SK-MEL-5 melanoma greater than 100 µM.
`Nc1ccc2c(c1)NC(=O)[C@@H]1CCCN1C2=O`: the TGI with UACC-62 melanoma, in the experiment on HL-60(TB) leukemia, in the experiment with NCI-H522 lung, in the experiment on SF-539 CNS, in the experiment with ACHN renal and with OVCAR-3 ovarian was greater than 100 µM throughout. Moreover, the TGI in the experiment with RXF 393 renal and with SK-MEL-5 melanoma was greater than 100 µM throughout.
In the case of `CC1CN=C(c2ccc(-c3nc(-c4ccc(C5=NCC(C)N5)cc4)nc(N(C)C)n3)cc2)N1` (stereo unspecified), the TGI in the experiment on UACC-62 melanoma worked out at 3.41 µM; in the experiment with HL-60(TB) leukemia, 6.88 µM; in the experiment on NCI-H522 lung, 3.2 µM; in the experiment on SF-539 CNS, 2.2 µM; in the experiment with ACHN renal it was 11.5 µM; with OVCAR-3 ovarian, 4.74 µM. The TGI with RXF 393 renal was 12.8 µM; with SK-MEL-5 melanoma, 14 µM.
Consider `CC(C)(Cc1ccccc1)N1C(=O)N1C(C)(C)Cc1ccccc1`, for which the TGI is greater than 100 µM with UACC-62 melanoma; 41.7 µM with HL-60(TB) leukemia; 60.6 µM in the experiment on NCI-H522 lung; greater than 100 µM in the experiment with SF-539 CNS; greater than 100 µM in the experiment on OVCAR-3 ovarian; 48.3 µM in the experiment with RXF 393 renal. Further, in the experiment on SK-MEL-5 melanoma, the TGI was 43.4 µM.
Take `CC1=CC[C@](C)(O)[C@@]2(C)CC[C@H]3C(=C(C)C)C(=O)C[C@]3(C)C[C@H]12`: the TGI in the experiment on UACC-62 melanoma was 47.1 µM; in the experiment on HL-60(TB) leukemia, 16.4 µM; in the experiment on NCI-H522 lung it was 31.5 µM; with SF-539 CNS, greater than 50 µM; with ACHN renal, greater than 50 µM; with OVCAR-3 ovarian it was greater than 50 µM. Also, the TGI in the experiment with RXF 393 renal and in the experiment with SK-MEL-5 melanoma was greater than 50 µM each time.
`O=C(NCCCCCCO)c1cccc2cc3ccccc3nc12`: the TGI in the experiment with UACC-62 melanoma worked out at 35.2 µM; in the experiment on HL-60(TB) leukemia it was 74.8 µM; in the experiment with NCI-H522 lung it was 28.8 µM; in the experiment on SF-539 CNS it was 33.7 µM; in the experiment with ACHN renal, 39.2 µM; with OVCAR-3 ovarian it was 36.5 µM. Further, the TGI in the experiment on RXF 393 renal was 37.7 µM; with SK-MEL-5 melanoma, 32.9 µM.
`COC(=O)[C@](C)(Cc1ccccc1)NC(=O)[C@@H](C)N1[C@@H](c2ccccc2)COC1(C)C`: the TGI is greater than 100 µM in the experiment on UACC-62 melanoma; greater than 100 µM in the experiment on HL-60(TB) leukemia; 99.3 µM in the experiment with NCI-H522 lung; greater than 100 µM with SF-539 CNS; greater than 100 µM in the experiment with ACHN renal; greater than 100 µM with OVCAR-3 ovarian. Moreover, the TGI with RXF 393 renal and in the experiment on SK-MEL-5 melanoma was greater than 100 µM throughout.
`C=CC(OC(C)=O)c1ccc(OC(C)=O)cc1` (stereo unspecified): the TGI with UACC-62 melanoma was 28.1 µM; with HL-60(TB) leukemia, 18.6 µM; in the experiment on NCI-H522 lung it was 3.57 µM; with SF-539 CNS, 4.78 µM; in the experiment on ACHN renal, 6.26 µM; in the experiment with OVCAR-3 ovarian, 16.4 µM. Besides, the values for the TGI with RXF 393 renal and with SK-MEL-5 melanoma were 28.1 µM and 28.7 µM, respectively.
With `COc1cc2oc(-c3ccc4c(c3)OCO4)c(OC)c(=O)c2c(O)c1OC`, the TGI in the experiment on UACC-62 melanoma, in the experiment with HL-60(TB) leukemia, in the experiment with NCI-H522 lung, with SF-539 CNS, in the experiment on ACHN renal and in the experiment with OVCAR-3 ovarian was greater than 50 µM in each case. Moreover, the TGI with RXF 393 renal and with SK-MEL-5 melanoma was greater than 50 µM throughout.
Regarding `NC1c2c(Cl)sc(Cl)c2C(=O)C1O` (stereo unspecified), the TGI in the experiment on UACC-62 melanoma was 43.7 µM; in the experiment with HL-60(TB) leukemia it was 30.1 µM; in the experiment on NCI-H522 lung, 41.6 µM; in the experiment with SF-539 CNS, greater than 100 µM; in the experiment with ACHN renal, 99.6 µM; in the experiment on OVCAR-3 ovarian it was greater than 100 µM. Further, the figures for the TGI in the experiment on RXF 393 renal and with SK-MEL-5 melanoma were 25.7 µM and 86.6 µM, respectively.
As for `CCOC(=O)Cc1csc(N=Nc2c(O)[nH]c3ccccc23)n1`, the TGI in the experiment on UACC-62 melanoma is greater than 100 µM; with HL-60(TB) leukemia it was 50.7 µM; with NCI-H522 lung it was 93.5 µM; in the experiment with SF-539 CNS, greater than 100 µM; in the experiment on ACHN renal, greater than 100 µM; in the experiment on OVCAR-3 ovarian, greater than 100 µM. Further, the TGI in the experiment on RXF 393 renal was greater than 100 µM; in the experiment on SK-MEL-5 melanoma, 69.9 µM.
